Source: patent publication US9168269B2, “Inhibitors of long and very long chain fatty acid metabolism as broad spectrum anti-virals” (THE TRUSTEES OF PRINCETON UNIVERSITY, priority 2010, dated 2015)
Where “and” joins values, the source holds several entries; their conditions need not be identical. Identical values can stand only once. Like-named read-outs stand apart in the source and are kept apart here.

Assays:
HCMV AD169 strain = assay: microbe, parasite or virus in culture; type: cell-based, human cytomegalovirus; conditions: 5 μg/ml
[1] = test system: viral growth and/or replication; assay: proposed combination of TOFA and ELOVL inhibitor, virus replication; type: cell-based; conditions: presence of a therapeutically effective concentration of ELOVL inhibitor
HCMV = assay: proposed combination of TOFA and triacsin C, virus replication; type: cell-based, human cytomegalovirus; conditions: for magnitude of the therapeutic effect: 10 μg/mL TOFA
influenza A = type: cell-based; conditions: for magnitude of the therapeutic effect: 10 μg/mL TOFA
HIV-1 = assay: proposed combination of TOFA and enfurtivide, HIV-1-infected C8166 cells; type: cell-based; conditions: for magnitude of the therapeutic effect: 10 μg/mL TOFA
Text: Non-limiting examples of assays that could be performed to assess the effect of a combination of an ACC inhibitor and an entry inhibitor on HIV-1 replication follow. Assays for TOFA-mediated antiviral activity using HIV-1-infected C8166 cells have been described in (WO 2009/023059). In each assay, various concentrations of TOFA can be combined with various concentrations of enfurtivide and assayed for their effect on virus replication. In one preferred embodiment, a physiological concentration of enfurtivide is held constant as the dose of TOFA is increased. Control cultures are treated with no drug, enfurtivide alone or the various concentrations of TOFA alone. Samples are taken at 24, 48, 72 and 96 hours after initiation of drug treatment. The antiviral effect of enfurtivide plus each concentration of TOFA is then compared to the activity of enfurtivide alone or the various concentrations of TOFA alone. Uptake of neutral red dye is used to determine the relative level of toxicity in duplicate cultures at each time a sample is harvested. […] At 10 μg/mL of TOFA, the magnitude of the therapeutic effect is increased from ^˜10-fold in the absence of enfurtivide to ^˜100-fold in its presence. […] Similar results are obtained for other entry inhibitors.

[2] = test system: HCV JFH1 strain derivative; assay: release of infectious HCV from Huh7.5 cells, TCID50 assay
Procedure: Huh7.5 cells were infected with a derivative of HCV JFH1 strain (MOI=0.1 TCID50/cell). Infected cells were maintained in medium containing 10% fetal calf serum plus DMSO (0 nM triacsin C) or triacsin C at the indicated concentrations. Media were harvested at 72 h and infectious virus was quantified by standard TCID50 assay on Huh7.5 cells.
Virus yield in the medium at 72 h after infection was determined.
Huh7.5 cells were infected a derivative of HCV JFH1 strain (MOI=0.1 TCID50/cell) Infected cells were maintained in medium containing 10% fetal calf serum plus DMSO (0 μg/ml TOFA) or TOFA at the indicated doses. Media were harvested at 72 h and infectious virus was quantified by standard TCID50 assay on Huh7.5 cells.
Huh7.5 cells which was infected with HCV and treated with indicated amounts of TOFA (FIG. 21).

Question: Which results are given for CCCCCCCCCCCCCCOc1ccc(C(=O)O)o1 [TOFA]?
Answer: inhibition of HCMV replication (HCMV AD169 strain): > 500 fold; reduction of the TOFA concentration required to reduce viral growth and/or replication by 10-fold [1]: ≥ 2 fold; concentration of TOFA required to produce a 10-fold reduction in HCMV replication (HCMV): ~10 μg/mL and < 5 μg/mL; magnitude of the therapeutic effect (HCMV; absence of triacsin C): ~10 fold; magnitude of the therapeutic effect (HCMV; presence of triacsin C): ~100 fold; magnitude of the therapeutic effect (influenza A; absence of oseltamivir): ~10 fold; magnitude of the therapeutic effect (influenza A; presence of oseltamivir): ~100 fold; concentration of TOFA required to produce a 10-fold reduction in influenza A replication (influenza A; TOFA alone): ~10 μg/mL; concentration of TOFA required to produce a 10-fold reduction in influenza A replication (influenza A; presence of a pharmacologically acceptable concentration of oseltamivir): < 5 μg/mL; magnitude of the therapeutic effect (HIV-1; absence of enfurtivide): ~10 fold; magnitude of the therapeutic effect (HIV-1; presence of enfurtivide): ~100 fold; concentration of TOFA required to produce a 10-fold reduction in HIV-1 replication (HIV-1; TOFA alone): ~10 μg/mL; concentration of TOFA required to produce a 10-fold reduction in HIV-1 replication (HIV-1; presence of a pharmacologically acceptable concentration of enfurtivide): < 5 μg/mL; host cell toxicity, neutral red dye assay (host cell; combined use of TOFA and enfurtivide): does not increase host cell toxicity; host cell toxicity, neutral red dye assay (host cell; combined use of TOFA and oseltamivir): does not increase host cell toxicity; host cell toxicity, neutral red dye assay (host cell; combined use of TOFA and triacsin C): does not increase host cell toxicity; inhibition of release of infectious HCV particles ([2]; 5 μg/ml): > 500 fold; inhibition of release of infectious HCV particles ([2]; 10 μg/ml): > 1000 fold
